According to PubChem BioAssay AID248 (DTP/NCI, 2004):
“And” between values parts separate entries of the source, which are not always exact repeats. Equal values may be shown once. Inconclusive results and toxic doses are left out.

System: L1210 leukemia ip in BDF1 mice, survival T/C
Experiment: NCI In Vivo Anticancer Drug Screen. Data for tumor model L1210 Leukemia (intraperitoneal) in B6D2F1 (BDF1) mice
Details: endpoint: mean survival time, higher = longer survival
Method in brief: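 Read-out is survival time, reported as the treated-group measurement over the vehicle-control measurement.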

[1] = dose: 50.0 mg/kg/injection, schedule: Q01DX001 (ip), vehicle: carboxymethylcellulose (CMC)
[2] = dose: 100.0 mg/kg/injection, schedule: Q01DX001 (ip), vehicle: carboxymethylcellulose (CMC)
[3] = dose: 200.0 mg/kg/injection, schedule: Q01DX001 (ip), vehicle: carboxymethylcellulose (CMC)
[4] = dose: 300.0 mg/kg/injection, schedule: Q01DX001 (ip), vehicle: carboxymethylcellulose (CMC)
[5] = dose: 400.0 mg/kg/injection, schedule: Q01DX001 (ip), vehicle: carboxymethylcellulose (CMC)
[6] = dose: 100.0 mg/kg/injection, schedule: Q01DX001 (ip), vehicle: saline
[7] = dose: 200.0 mg/kg/injection, schedule: Q01DX001 (ip), vehicle: saline
[8] = dose: 200.0 mg/kg/injection, schedule: Q01DX009 (ip), vehicle: saline
[9] = dose: 400.0 mg/kg/injection, schedule: Q01DX001 (ip), vehicle: saline
[10] = dose: 400.0 mg/kg/injection, schedule: Q01DX009 (ip), vehicle: saline
[11] = dose: 100.0 mg/kg/injection, schedule: Q04DX003 (ip), vehicle: Klucel (hydroxypropylcellulose) (HPC)
[12] = dose: 200.0 mg/kg/injection, schedule: Q04DX003 (ip), vehicle: Klucel (hydroxypropylcellulose) (HPC)
[13] = dose: 400.0 mg/kg/injection, schedule: Q04DX003 (ip), vehicle: Klucel (hydroxypropylcellulose) (HPC)
[14] = dose: 100.0 mg/kg/injection, schedule: Q04DX003 (ip), vehicle: saline
[15] = dose: 100.0 mg/kg/injection, schedule: Q01DX009 (ip), vehicle: Klucel (hydroxypropylcellulose) (HPC)
[16] = dose: 200.0 mg/kg/injection, schedule: Q01DX009 (ip), vehicle: Klucel (hydroxypropylcellulose) (HPC)
[17] = dose: 400.0 mg/kg/injection, schedule: Q01DX009 (ip), vehicle: Klucel (hydroxypropylcellulose) (HPC)
[18] = dose: 100.0 mg/kg/injection, schedule: Q01DX009 (ip), vehicle: saline with Tween-80

COC1C(O)C(CO)OC1n1cnc2c(=S)nc[nH]c21 (stereo not given)
T/C [1]: 102 % of control
T/C (dose: 88.8 mg/kg/injection, schedule: Q01DX001 (ip), vehicle: carboxymethylcellulose (CMC)): 102 % of control and 112 % of control
T/C [2]: 102 % of control
T/C (dose: 133.0 mg/kg/injection, schedule: Q01DX001 (ip), vehicle: carboxymethylcellulose (CMC)): 110 % of control and 116 % of control
T/C [3]: 110 % of control and 116 % of control
T/C [4]: 102 % of control and 116 % of control
T/C [5]: 102 % of control

ClC1=C(Cl)C2(Cl)C3C4C=CC(C4)C3N1C2(Cl)Cl (stereo not given)
T/C (dose: 50.0 mg/kg/injection, schedule: Q01DX001 (ip), vehicle: saline with Tween-80): 98 % of control
T/C (dose: 100.0 mg/kg/injection, schedule: Q01DX001 (ip), vehicle: saline with Tween-80): 95 % of control

CCOC(=O)c1cnc(SC)nc1NCc1ccccc1C
T/C (dose: 100.0 mg/kg/injection, schedule: Q04DX003 (ip), vehicle: saline with Tween-80): 94 % of control
T/C (dose: 200.0 mg/kg/injection, schedule: Q04DX003 (ip), vehicle: saline with Tween-80): 94 % of control
T/C (dose: 400.0 mg/kg/injection, schedule: Q04DX003 (ip), vehicle: saline with Tween-80): 92 % of control

Cc1ccc(N)cc1Br
T/C [6]: 102 % of control
T/C (dose: 100.0 mg/kg/injection, schedule: Q01DX009 (ip), vehicle: saline): 100 % of control
T/C [7]: 94 % of control
T/C [8]: 90 % of control
T/C [9]: 94 % of control
T/C [10]: 103 % of control

O=c1ccc2c(-c3cc(S(=O)(=O)O)ccc3O)c3ccc(O)cc3oc-2c1
T/C [11]: 91 % of control
T/C [12]: 89 % of control
T/C [13]: 91 % of control

COC1OC(CNC(=O)N(C)N=O)C(O)C(O)C1O (stereo not given)
T/C [14]: 115 % of control
T/C (dose: 115.0 mg/kg/injection, schedule: Q04DX003 (ip), vehicle: saline): 116 % of control
T/C (dose: 132.0 mg/kg/injection, schedule: Q04DX003 (ip), vehicle: saline): 120 % of control
T/C [8]: 150 % of control and 170 % of control
T/C (dose: 300.0 mg/kg/injection, schedule: Q01DX009 (ip), vehicle: saline): 173 % of control
T/C [10]: 166 % of control
T/C (dose: 400.0 mg/kg/injection, schedule: Q04DX003 (ip), vehicle: saline): 150 % of control and 160 % of control

O=C(O)c1c(Br)c(Br)c(Br)c(Br)c1C(=O)Nc1ccc(Cl)cc1C(F)(F)F
T/C [15]: 101 % of control
T/C [16]: 112 % of control
T/C [17]: 102 % of control

Cc1ccc(NC(=O)NNC(=O)CCCC(=O)NNC(=O)Nc2ccc(C)cc2)cc1
T/C (dose: 50.0 mg/kg/injection, schedule: Q01DX001 (ip), vehicle: saline): 96 % of control
T/C [6]: 102 % of control
T/C [7]: 96 % of control
T/C [9]: 96 % of control

S=c1nc[nH]c2c1ncn2CCCc1ccccc1
T/C [1]: 106 % of control
T/C [2]: 98 % of control
T/C [3]: 98 % of control
T/C [5]: 95 % of control

CN1CCN(C(=O)N2c3ccccc3Sc3ccccc32)CC1
T/C (dose: 12.5 mg/kg/injection, schedule: Q04DX003 (ip), vehicle: saline): 99 % of control
T/C (dose: 25.0 mg/kg/injection, schedule: Q04DX003 (ip), vehicle: saline): 95 % of control
T/C (dose: 50.0 mg/kg/injection, schedule: Q04DX003 (ip), vehicle: saline): 101 % of control
T/C [14]: 100 % of control
T/C (dose: 200.0 mg/kg/injection, schedule: Q04DX003 (ip), vehicle: saline): 92 % of control

O=NC1C(Cl)C2CC1C1CCCC21 (stereo not given)
T/C [11]: 95 % of control
T/C [16]: 92 % of control
T/C [12]: 92 % of control
T/C [17]: 96 % of control
T/C [13]: 94 % of control

CCOc1ccc(NC(C)=O)c(OC(C)=O)c1
T/C (dose: 75.0 mg/kg/injection, schedule: Q01DX001 (ip), vehicle: carboxymethylcellulose (CMC)): 95 % of control and 100 % of control
T/C (dose: 150.0 mg/kg/injection, schedule: Q01DX001 (ip), vehicle: carboxymethylcellulose (CMC)): 100 % of control
T/C [4]: 93 % of control

COc1ccc(NC(=O)C(CC(C(C)=O)C(=O)Nc2ccc(OC)cc2)C(C)=O)cc1 (stereo not given)
T/C [18]: 87 % of control
T/C (dose: 400.0 mg/kg/injection, schedule: Q01DX009 (ip), vehicle: saline with Tween-80): 88 % of control

C#CC(C)(O)C(C)(C)C (stereo not given)
T/C (dose: 100.0 mg/kg/injection, schedule: Q04DX002 (ip), vehicle: saline with Tween-80): 91 % of control
T/C (dose: 200.0 mg/kg/injection, schedule: Q04DX002 (ip), vehicle: saline with Tween-80): 95 % of control
T/C (dose: 400.0 mg/kg/injection, schedule: Q04DX002 (ip), vehicle: saline with Tween-80): 87 % of control

Cc1cccc(NC(=O)NCC(=O)NNC(=O)Nc2cc([N+](=O)[O-])ccc2C)n1
T/C (dose: 50.0 mg/kg/injection, schedule: Q01DX009 (ip), vehicle: Klucel (hydroxypropylcellulose) (HPC)): 100 % of control
T/C [15]: 89 % of control
T/C [16]: 88 % of control

O=C(O)CCc1cccc(O)c1
T/C (dose: 25.0 mg/kg/injection, schedule: Q04DX002 (ip), vehicle: saline): 111 % of control
T/C (dose: 50.0 mg/kg/injection, schedule: Q04DX002 (ip), vehicle: saline): 111 % of control
T/C (dose: 100.0 mg/kg/injection, schedule: Q04DX002 (ip), vehicle: saline): 101 % of control

CC(=O)OCC1OC(SP(C)C)C(OC(C)=O)C(OC(C)=O)C1OC(C)=O (stereo not given)
T/C (dose: 100.0 mg/kg/injection, schedule: Q01DX001 (ip), vehicle: Klucel (hydroxypropylcellulose) (HPC)): 101 % of control
T/C (dose: 200.0 mg/kg/injection, schedule: Q01DX001 (ip), vehicle: Klucel (hydroxypropylcellulose) (HPC)): 98 % of control
T/C (dose: 400.0 mg/kg/injection, schedule: Q01DX001 (ip), vehicle: Klucel (hydroxypropylcellulose) (HPC)): 96 % of control

CC1(C)C2CCC1(CBr)C(=O)C2 (stereo not given)
T/C (dose: 200.0 mg/kg/injection, schedule: Q04DX002 (ip), vehicle: Klucel (hydroxypropylcellulose) (HPC)): 100 % of control

[NH-]S(=O)(=O)O.[NH-]S(=O)(=O)O.[NH2-].[NH2-].[Pt+4]
T/C (dose: 10.0 mg/kg/injection, schedule: Q01DX009 (ip), vehicle: saline with Tween-80): 100 % of control
T/C (dose: 20.0 mg/kg/injection, schedule: Q01DX009 (ip), vehicle: saline with Tween-80): 90 % of control
T/C (dose: 40.0 mg/kg/injection, schedule: Q01DX009 (ip), vehicle: saline with Tween-80): 100 % of control

NCC(OC1CCCCC1)C(Cl)(Cl)Cl (stereo not given)
T/C (dose: 50.0 mg/kg/injection, schedule: Q01DX009 (ip), vehicle: saline with Tween-80): 92 % of control
T/C [18]: 97 % of control

C/C=C\c1ccc(OC(=O)c2ccc([N+](=O)[O-])cc2)c(OC)c1
T/C (dose: 100.0 mg/kg/injection, schedule: Q01DX001 (ip), vehicle: other): 97 % of control
T/C (dose: 200.0 mg/kg/injection, schedule: Q01DX001 (ip), vehicle: other): 106 % of control
T/C (dose: 400.0 mg/kg/injection, schedule: Q01DX001 (ip), vehicle: other): 94 % of control

CCCCCCCCN(NC(=O)c1ccccc1)S(=O)(=O)c1ccccc1
T/C (dose: 25.0 mg/kg/injection, schedule: Q01DX001 (ip), vehicle: carboxymethylcellulose (CMC)): 100 % of control
T/C (dose: 25.0 mg/kg/injection, schedule: Q04DX003 (ip), vehicle: carboxymethylcellulose (CMC)): 96 % of control
T/C [1]: 100 % of control
T/C (dose: 50.0 mg/kg/injection, schedule: Q01DX009 (ip), vehicle: carboxymethylcellulose (CMC)): 97 % of control and 89 % of control
T/C (dose: 50.0 mg/kg/injection, schedule: Q04DX002 (ip), vehicle: carboxymethylcellulose (CMC)): 100 % of control and 107 % of control
T/C (dose: 50.0 mg/kg/injection, schedule: Q04DX003 (ip), vehicle: carboxymethylcellulose (CMC)): 96 % of control
T/C [2]: 98 % of control
T/C (dose: 100.0 mg/kg/injection, schedule: Q01DX009 (ip), vehicle: carboxymethylcellulose (CMC)): 100 % of control and 105 % of control
T/C (dose: 100.0 mg/kg/injection, schedule: Q04DX002 (ip), vehicle: carboxymethylcellulose (CMC)): 100 % of control and 101 % of control
T/C (dose: 200.0 mg/kg/injection, schedule: Q04DX002 (ip), vehicle: carboxymethylcellulose (CMC)): 102 % of control and 103 % of control
